Reference: patent US6384249B1, “Compounds and methods for stabilization of furfural compositions” (Hercules, Inc., priority 2000, dated 2002)
Several values for one entry are separate records, joined by “and”; a condition that tells them apart may be missing. Equal values may be shown once.

Test: Accelerated air oxidation of furfural, Total Acid Number (TAN) by potentiometric titration
Conditions: 25 psig air, 300° F., 2 hours
Experimental: In this example, distilled furfural was treated with prospective stabilizers, over-pressured with 25 psig of air, heated to 300° F., and held at temperature for 2 hours to allow for an accelerated rate of furfural oxidation. Total Acid Number (TAN) titrations were then conducted by potentiometric titration on the treated furfural samples, an untreated (blank), and a sample of the original distilled material (control), which was not heated to 300° F. The acid number, expressed as mg KOH/g, is a measure of the acid generated during air oxidation of furfural. Performance of inhibitors was expressed as a percent inhibition by the following equation: […]

## CC(C)CC(C)N=C1C=CC(=Nc2ccccc2)C=C1 (stereo not shown) [Compound #4]
250 ppmA stabilizer
  % Inhibition @ ppmA: 48%
500 ppmA stabilizer
  % Inhibition @ ppmA: 76%
1000 ppmA stabilizer
  % Inhibition @ ppmA: 95%

## CCC(C)Nc1ccc(NC(C)CC)cc1 (stereo not shown) [Compound #1]
250 ppmA stabilizer
  % Inhibition @ ppmA: 69%
500 ppmA stabilizer
  % Inhibition @ ppmA: 106% and 114%
1000 ppmA stabilizer
  % Inhibition @ ppmA: 88% and 170%
2000 ppmA stabilizer
  % Inhibition @ ppmA: 57%

## CCC(C)CC(C)Nc1ccc(Nc2ccccc2)cc1 (stereo not shown) [Compound #2]
250 ppmA stabilizer
  % Inhibition @ ppmA: 15%
500 ppmA stabilizer
  % Inhibition @ ppmA: 37%
1000 ppmA stabilizer
  % Inhibition @ ppmA: 56%

## Cc1cc(C(C)(C)C)c(O)c(C(C)(C)C)c1 [Compound #3, 2,6-di-tert-butyl-4-methylphenol]
250 ppmA stabilizer
  % Inhibition @ ppmA: −10%
500 ppmA stabilizer
  % Inhibition @ ppmA: −5%
1000 ppmA stabilizer
  % Inhibition @ ppmA: 12%
